Reference: patent publication US12337033B2, “Encapsulated glycolipid antigens for treatment of neoplastic diseases” (EnGeneIC Molecular Delivery Pty Ltd, priority 2019, dated 2025)

Experiments:
[1] = test system: many different tumor cell lines; test: Cytotoxicity assays against tumor cell lines; type: cell-based
JAWSII cells = test: αGC surface presentation through CD1d on JAWSII cells (anti-alpha GalCer:mCD1d staining, flow cytometry); type: cell-based, mouse; conditions: 8h-48h post-treatment, compared to minicells alone and untreated, free αGC 1000 ng/ml
Protocol: Cells used: Mouse immature […] JAWSII (ATCC® CRL-11904™).
Preparation Perfecta3D 96-Well Hanging Drop Plate: The upper and lower side tray reservoirs of the 3D hanging drop plates were filled with melted 1% agarose using a P1000 pipette (1 g agarose dissolve in 100 ml of water, dissolved in microwave and allowed to cool to ˜50° C.). The plates were allowed to dry and settle at room temperature for at least 30 min. The outside wells of the hanging drop plate were then filled with 50 μl of sterile cell culture media (without cells)/well.
Treatment of JAWSII spheroids with EDVαGC: JAWSII cells were treated with 1000 ng/ml aGC (positive control); empty minicells and minicellsαGC compared to untreated cells and collected at 8h, 16h, 24h and 48h post-treatment (FIGS. 8A-8D).
Dissociation of JAWSII cells into single-cell suspensions: JAWSII cells were grown as semi-suspension cultures in T25 or T75 flasks. The culture media was carefully collected into a sterile 50 ml tube by pipetting using a pipette-aid and the culture surface of the flask was washed 2× with 5 ml of sterile PBS, and collected in the same sterile 50 ml tube after each wash. […] To determine the cell number, 10 μl of the cell suspension was mixed with 10 μl of trypan blue solution and analyzed using an EVE automated cell counter. […]

Row | SMILES | drug resistance in tumor cell lines ([1]; a number of different tumor cell lines) | potency compared with a range of conventional chemotherapeutics ([1]; cytotoxicity assays, many different tumor cell lines) | staining with anti-GalCer:mCD1d (α-GC presentation on the cell surface by CD1d) (JAWSII cells)
1 | COc1cccc2c1C(=O)c1c(O)c3c(c(O)c1C2=O)C[C@@](O)(C(=O)CO)C[C@@H]3OC1CC2C(OC3C(OC)OCCN23)C(C)O1 (stereo partly drawn) [PNU159682, 3′-deamino-3″,4′-anhydro-[2″(S)-methoxy-3″(R)-oxy-4″-morpholinyl] doxorubicin] | appears to overcome drug resistance | much more potent | –
2 | CCCCCCCCCCCCCCCCCCCCCCCCCC(=O)N[C@@H](CO[C@H]1O[C@H](CO)[C@H](O)[C@H](O)[C@H]1O)[C@H](O)[C@H](O)CCCCCCCCCCCCCC [free α-GC, α-galactosylceramide] | – | – | clear shift
